Legend:
[1] = Capsule perfume leakage in liquid fabric enhancer (LFE), headspace SPME GC/MS; assay type: physicochemical
Experimental: The testing of capsule leakage in liquid compositions (e.g., liquid fabric enhancer/“LFE” compositions and/or heavy-duty liquid/“HDL” detergents) is performed as follows. […] The 1 gram aliquot in the 7 ml vial is then mixed on a stirring plate for 24 h at 500 rpm, thereby ensuring that the capsules are broken by the grinding action of the stir bar against the bottom of the 7 ml vial. Optical microscopy can be used to verify that no more intact capsules remain. In case such capsules are found, the step is to repeated for an additional 24 h, or until all or almost all capsules are broken. Then, the formulation containing broken capsules is introduced into GC vials in a similar manner as for step (a). This yields total oil samples. It is to be noted that the capsule sample and the total oil sample are not analyzed on the same day, as there is a need to prepare the total oil sample after the capsule sample has been removed from storage. […] The perfume oil composition formulated herein is representative of the perfume oil composition that is present in the slurry. Then the free oil formulation is introduced into GC vials in a similar manner as for step (a). This yields reference samples, which must be used when analyzing both the capsule sample and the total oil sample. […] Two headspace vials are prepared for each sample. The sealed headspace vials are then allowed to equilibrate. Samples reach equilibrium after 3 hours at room temperature, but can be left to sit longer without detriment or change to the results, up until 24 hours after sealing the headspace vial. After equilibrating, the samples are analyzed by GC/MS. […] The perfume composition is analyzed by fast GC/MS in full scan mode. Ion extraction of the specific mass for each component is obtained. The leakage is calculated as follows, separately for the capsule sample and total oil sample, where “Area” denotes the area under the chromatogram peak corresponding to the PRM of interest: Once calculated for all PRMs for both the total oil sample and the capsule sample, the corrected PRM leakage can be calculated using the following formula: Once the corrected PRM leakage has been calculated for all PRMs, the Average leakage can be found by taking the arithmetic mean of each corrected PRM leakage. […] The resulting products are stored for one week at 35° C. At the end of the storage period, samples of each product composition are analyzed for perfume leakage out of the capsule using headspace analysis. The data is reported as a percentage, determined by comparing the amount of the individual perfume raw materials found in the headspace to the amount originally provided to the capsules.

[2] = Capsule perfume leakage in heavy-duty liquid (HDL) detergent, headspace SPME GC/MS; assay type: physicochemical
Experimental: The testing of capsule leakage in liquid compositions (e.g., liquid fabric enhancer/“LFE” compositions and/or heavy-duty liquid/“HDL” detergents) is performed as follows. […] The 1 gram aliquot in the 7 ml vial is then mixed on a stirring plate for 24 h at 500 rpm, thereby ensuring that the capsules are broken by the grinding action of the stir bar against the bottom of the 7 ml vial. Optical microscopy can be used to verify that no more intact capsules remain. In case such capsules are found, the step is to repeated for an additional 24 h, or until all or almost all capsules are broken. Then, the formulation containing broken capsules is introduced into GC vials in a similar manner as for step (a). This yields total oil samples. It is to be noted that the capsule sample and the total oil sample are not analyzed on the same day, as there is a need to prepare the total oil sample after the capsule sample has been removed from storage. […] The perfume oil composition formulated herein is representative of the perfume oil composition that is present in the slurry. Then the free oil formulation is introduced into GC vials in a similar manner as for step (a). This yields reference samples, which must be used when analyzing both the capsule sample and the total oil sample. […] Two headspace vials are prepared for each sample. The sealed headspace vials are then allowed to equilibrate. […] After equilibrating, the samples are analyzed by GC/MS. […] The perfume composition is analyzed by fast GC/MS in full scan mode. Ion extraction of the specific mass for each component is obtained. The leakage is calculated as follows, separately for the capsule sample and total oil sample, where “Area” denotes the area under the chromatogram peak corresponding to the PRM of interest: Once calculated for all PRMs for both the total oil sample and the capsule sample, the corrected PRM leakage can be calculated using the following formula: Once the corrected PRM leakage has been calculated for all PRMs, the Average leakage can be found by taking the arithmetic mean of each corrected PRM leakage. […] The resulting products are stored for one week at 35° C. At the end of the storage period, samples of each product composition are analyzed for perfume leakage out of the capsule using headspace analysis. The data is reported as a percentage, determined by comparing the amount of the individual perfume raw materials found in the headspace to the amount originally provided to the capsules.

[3] = PRM of Perfume 1 out of Comparative Example 4-1 capsules (polyacrylate shell), LFE Composition 1, 0.25 wt % perfume
[4] = PRM of Perfume 1 out of Comparative Example 6-1 capsules (no second shell component), LFE Composition 1
[5] = PRM of Perfume 1 out of Comparative Example 10-1 capsules (per EP2500087B1), LFE Composition 1
[6] = PRM of Perfume 1 out of Comparative Example 10-2 capsules (per WO2010013250A2, with IPM), LFE Composition 1
[7] = PRM of Perfume 1 out of Example 2, Sample A capsules, LFE Composition 1 (Ester Quat 1)
[8] = PRM of Perfume 1 out of Example 2, Sample A capsules, LFE Composition 2 (Ester Quat 2)
[9] = PRM of Perfume 1 out of Example 2, Sample A capsules, LFE Composition 3 (Ester Quat 3)
[10] = PRM of Perfume 1 out of Example 4-1 capsules (silica shell), LFE Composition 1, 0.25 wt % perfume
[11] = PRM of Perfume 1 out of Example 6-1 capsules (w/ second shell component), LFE Composition 1
[12] = PRM of Perfume 1 out of Example 10-1 capsules (Sample F, Perfume 1/IPM 40/60), LFE Composition 1
[13] = PRM of Perfume 1 out of Example 10-2 capsules (Sample A), LFE Composition 1
[14] = PRM of Perfume 2 out of Capsule Sample C, LFE Composition 1
[15] = PRM of Perfume 1 out of Comparative Example 5-1 capsules (polyacrylate shell)
[16] = PRM of Perfume 1 out of Comparative example 5-2 capsules (per EP2500087B1)
[17] = PRM of Perfume 1 out of Comparative example 5-3 capsules (per WO2010013250A2)
[18] = PRM of Perfume 1 out of Example 5-1 capsules (silica shell)

Compound	Leakage (as %) after 1 week at 35° C. [1, 3] [%]	Leakage (as %) after 1 week at 35° C. [1, 4] [%]	Leakage (as %) after 1 week at 35° C. [1, 5] [%]	Leakage (as %) after 1 week at 35° C. [1, 6] [%]	Leakage (as %) after 1 week at 35° C. [1, 7] [%]	Leakage (as %) after 1 week at 35° C. [1, 8] [%]	Leakage (as %) after 1 week at 35° C. [1, 9] [%]	Leakage (as %) after 1 week at 35° C. [1, 10] [%]	Leakage (as %) after 1 week at 35° C. [1, 11] [%]	Leakage (as %) after 1 week at 35° C. [1, 12] [%]	Leakage (as %) after 1 week at 35° C. [1, 13] [%]	Leakage (as %) after 1 week at 35° C. [1, 14] [%]	Leakage (as %) after 1 week at 35° C. ([1]; PRM of Perfume 3 out of Capsule Sample D, LFE Composition 1) [%]	Leakage (as %) after 1 week at 35° C. ([1]; PRM of Perfume 4 out of Comparative Example 9-1 capsules (per EP3078415A), LFE Composition 1) [%]	Leakage (as %) after 1 week at 35° C. ([1]; PRM of Perfume 4 out of Comparative Example 9-2 capsules (per EP3078415A, additional TEOS), LFE Composition 1) [%]	Leakage (as %) after 1 week at 35° C. ([1]; PRM of Perfume 4 out of Example 9-1 capsules (Sample E), LFE Composition 1) [%]	Leakage (as %) after 1 week at 35° C. [2, 15] [%]	Leakage (as %) after 1 week at 35° C. [2, 16] [%]	Leakage (as %) after 1 week at 35° C. [2, 17] [%]	Leakage (as %) after 1 week at 35° C. [2, 18] [%]
CCC(C)(O)CCCC(C)C (stereo not drawn) [Tetrahydro linalool]	9	83	90	95	2.3	1.1	1.2	8	8	18	8	9	9	70	76	17	2	105	102	27
CC1=CC(C)C(C=O)CC1 (stereo not drawn) [2,4-dimethylcyclohex-3-ene-1-carbaldehyde]	31	94	94	96	2.1	1.1	1.6	7	8	22	8	12					12	104	101	31

— patent US12630785B2, “Liquid fabric care compositions comprising capsules” (The Procter & Gamble Company, priority 2020, dated 2026)
